# Measured values: patent US11135209B2, “Compositions and methods for inhibiting protein kinases” (UNIVERSITY OF HOUSTON SYSTEM, priority 2017, dated 2021)
# Columns and labels:
# [1] = tested on: NOD2 cellular signaling in HEK-Blue cells expressing human NOD2; experiment: NOD2 cell signaling assay (HEK-Blue, NFkB-SEAP reporter, L18-MDP stimulated); type: cell-based; conditions: read-out: IC50 (nM) HEKBlue RIPK2
# Protocol: NOD2 Cell Signaling Assay.
# HEK-Blue cells expressing human NOD2 and NFkB-SAEP reporter (Invivogen) are seeded into 96 well clear plates at 7.5×10^3 cells per well in 100 μL of DMEM media supplemented with 10% FBS and 1% antibiotic-antimycotic mix. Cells are allowed to attach for 48 h in 5% CO2 tissue culture incubator at 37° C. On the morning of the experiment, media in the wells is replaced with 100 pt of HEK-Blue detection media (Invivogen). Cells are treated with the inhibitors, diluted in DMSO (0.5 μL per well) for 15 min in 5% CO2 tissue culture incubator at 37° C. After that, cells are stimulated by the addition of 1 ng/well L18-MDP (Invivogen). Cells are incubated in 5% CO2 tissue culture incubator at 37° C. for 8 h and absorbance, corresponding to the SEAP in the media, is determined in Wallac3V plate reader (Perkin Elmer). Inhibition, %=(1−((sample signal-unstimulated and DMSO treated cells)/(L18-MDP stimulated and DMSO treated cells−unstimulated and DMSO treated cells)))*100. IC50 values are calculated based on a dose range of inhibitor concentrations using non-linear regression in GraphPad Prism software.
# [2] = biological target: Recombinant RIPK2 protein (Homo sapiens, UniProt O43353); experiment: Receptor Interacting Protein Kinase 2 (RIPK2) enzyme assay (ADP-Glo); type: biochemical; conditions: for inhibition at 0.5 µM: Conc. 500 nM
# Recombinant RIPK2 protein, sequence (O43353 whole entry, species assumed): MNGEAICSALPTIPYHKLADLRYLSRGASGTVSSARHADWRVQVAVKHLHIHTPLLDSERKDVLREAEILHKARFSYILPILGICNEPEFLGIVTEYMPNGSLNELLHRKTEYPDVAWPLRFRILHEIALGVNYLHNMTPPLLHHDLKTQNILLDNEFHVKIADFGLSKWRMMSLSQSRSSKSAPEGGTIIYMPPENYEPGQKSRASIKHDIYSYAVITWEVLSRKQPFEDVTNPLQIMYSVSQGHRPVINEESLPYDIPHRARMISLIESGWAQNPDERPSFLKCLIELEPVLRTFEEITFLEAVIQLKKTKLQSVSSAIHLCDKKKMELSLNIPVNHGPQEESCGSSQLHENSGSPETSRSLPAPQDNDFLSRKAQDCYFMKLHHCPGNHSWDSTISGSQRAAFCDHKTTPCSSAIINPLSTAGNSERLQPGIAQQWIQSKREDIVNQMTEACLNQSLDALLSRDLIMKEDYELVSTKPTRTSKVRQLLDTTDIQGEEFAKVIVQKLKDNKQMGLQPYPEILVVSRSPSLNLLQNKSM
# Protocol: Receptor Interacting Protein Kinase 2 (RIPK2) Enzyme Assay
# Recombinant RIPK2 protein (20 ng per reaction) is diluted in the reaction buffer consisting of 40 mM Tris (pH 7.5); 20 mM MgCl2; 0.1 mg/ml BSA; 50 μM DTT. Diluted protein is added to low volume white 384 well plates (2 μL/well). Inhibitors are diluted in reaction buffer (final 25% DMSO), 1 μL is added to each well and incubated 5 min at room temperature. Reactions are initiated by the addition of 2 μL of 100 μM ATP and 1 mg/ml RS repeat peptide (SignalChem) in the reaction buffer. Plates are sealed with plastic coverslips and incubated at room temperature for 2 h. Reactions are stopped by the addition of 5 μL of ADP-Glo reagent (Promega) and ADP generation reaction is performed for 40 min at room temperature. Luminescence signal is generated by the addition of 10 μL of Kinase detection reagent (Promega) for 30 min at room temperature Luminescence signals are determined using appropriate luminescence plate-reader (typical integration time 0.3-1 sec). To calculate percent inhibition, average background signal is subtracted from test well and maximal signal wells. Inhibition, %=(1−(test signal/maximal signal))*100. The percent inhibition at a specified concentration is determined or IC50 values are calculated based on a dose range of inhibitor concentrations using non-linear regression in GraphPad Prism software.
# human ALK2 = biological target: T1, human ALK2 (Homo sapiens, UniProt Q04771); experiment: Activin-Like Kinase 2 (ALK2) enzyme assay; type: biochemical
# T1 sequence (Q04771 21-509): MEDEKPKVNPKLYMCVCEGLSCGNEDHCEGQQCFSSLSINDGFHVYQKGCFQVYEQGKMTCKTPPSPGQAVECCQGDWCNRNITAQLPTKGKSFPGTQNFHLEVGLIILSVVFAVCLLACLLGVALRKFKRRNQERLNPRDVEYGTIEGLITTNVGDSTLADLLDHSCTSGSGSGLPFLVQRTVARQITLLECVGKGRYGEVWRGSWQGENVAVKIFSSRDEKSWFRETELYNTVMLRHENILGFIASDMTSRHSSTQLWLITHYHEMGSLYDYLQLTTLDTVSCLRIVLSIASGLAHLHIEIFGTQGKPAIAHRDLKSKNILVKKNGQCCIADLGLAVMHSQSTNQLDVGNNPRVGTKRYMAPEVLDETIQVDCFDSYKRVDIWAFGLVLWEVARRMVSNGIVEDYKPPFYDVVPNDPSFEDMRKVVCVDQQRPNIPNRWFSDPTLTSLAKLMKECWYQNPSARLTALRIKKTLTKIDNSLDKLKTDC
# Protocol: Activin-Like Kinase 2 (ALK2) Enzyme Assay
# Enzyme inhibitory activity was evaluated in a standard kinase enzyme assay by incubating human ALK2 with the protein substrate casein (1 mg/mL) and γ-^33ATP (10 μM) in the presence of various concentrations of test compounds (10 nM-100 μM). After 30 min the amount of ^33P-casein was determined.
IC50 [2] [nM],IC50 (human ALK2) [nM],inhibition at 0.5 µM [2] [%],SMILES,IC50 [1] [nM]
> 10,> 100,,"CCOc1cc(NS(=O)(=O)C(C)C)cc(-c2cc(-c3ccc(N4CCNCC4)cc3)cnc2N)c1 [CSLP22, N-(3-(2-Amino-5-(4-(piperazin-1-yl)phenyl)pyridin-3-yl)-5-ethoxyphenyl)propane-2-sulfonamide]",> 10
> 100,> 10000,,CCCS(=O)(=O)Nc1cc(-c2cc(-c3cccc(S(C)(=O)=O)c3)cnc2N)ccc1OC [CSLP30],> 1000
> 10,> 100,,"CCCS(=O)(=O)Nc1cc(-c2cc(-c3ccc(N4CCNCC4)cc3)cnc2N)ccc1O [CSLP48, N-(5-(2-Amino-5-(4-(piperazin-1-yl)phenyl)pyridin-3-yl)-2-hydroxyphenyl)propane-1-sulfonamide]",> 1000
> 10,> 10,86,"COc1cc(NS(=O)(=O)CC(C)C)cc(-c2cc(-c3ccc(N4CCNCC4)cc3)cnc2C)c1 [CSLP17, N-(3-Methoxy-5-(2-methyl-5-(4-(piperazin-1-yl)phenyl)pyridin-3-yl)phenyl)-2-methylpropane-1-sulfonamide]",> 1000
> 100,> 100,,"CCCS(=O)(=O)NCc1cc(-c2cc(-c3ccc(N4CCNCC4)cc3)cnc2N)ccc1OC [CSLP36, N-(5-(2-Amino-5-(4-(piperazin-1-yl)phenyl)pyridin-3-yl)-2-methoxybenzyl)propane-1-sulfonamide]",> 1000
> 10,> 1000,,"COc1ccc(-c2cc(-c3ccc(N4CCNCC4)cc3)cnc2N)cc1NS(=O)(=O)C(C)C [CSLP28, N-(5-(2-Amino-5-(4-(piperazin-1-yl)phenyl)pyridin-3-yl)-2-methoxyphenyl)propane-2-sulfonamide]",> 100
> 10,> 1,,CCCS(=O)(=O)Nc1cc(OC)cc(-c2cc(-c3ccc(N4CCNCC4)cc3)cnc2N)c1 [CSLP6],> 100
> 100,> 10,86,CCS(=O)(=O)Nc1cc(OC)cc(-c2cc(-c3ccc(N4CCNCC4)cc3)cnc2Cl)c1 [CSLP14],> 1000
> 10,> 100,,"CCCS(=O)(=O)Nc1cc(OC)cc(-c2cc(-c3cccc(S(C)(=O)=O)c3)cnc2N)c1 [CSLP44, N-(3-(2-Amino-5-(3-(methylsulfonyl)phenyl)pyridin-3-yl)-5-methoxyphenyl)propane-1-sulfonamide]",> 1000
> 10,> 1,,COc1cc(NS(=O)(=O)C(C)C)cc(-c2cc(-c3ccc(N4CCNCC4)cc3)cnc2N)c1 [CSLP8],> 100
> 1000,> 100,,"COc1cc(-c2cc(-c3ccc(N4CCNCC4)cc3)cnc2N)cc(NS(C)(=O)=O)c1C [CSLP21, N-(5-(2-Amino-5-(4-(piperazin-1-yl)phenyl)pyridin-3-yl)-3-methoxy-2-methylphenyl)methanesulfonamide]",> 1000
> 1000,> 10,,"COc1cc(-c2cc(-c3ccc(N4CCNCC4)cc3)cnc2N)cc(NS(=O)(=O)Cc2ccccc2)c1C [CSLP31, N-(5-(2-Amino-5-(4-(piperazin-1-yl)phenyl)pyridin-3-yl)-3-methoxy-2-methylphenyl)-1-phenylmethanesulfonamide]",> 100
> 100,> 10,73,"CCS(=O)(=O)Nc1cc(OC)cc(-c2cc(-c3ccc(N4CCNCC4)cc3)cnc2C)c1 [CSLP15, N-(3-Methoxy-5-(2-methyl-5-(4-(piperazin-1-yl)phenyl)pyridin-3-yl)phenyl)ethanesulfonamide]",> 1000
> 10,> 100,85,"COc1cc(NS(=O)(=O)C(C)C)cc(-c2cc(-c3ccc(N4CCNCC4)cc3)cnc2C)c1 [CSLP16, N-(3-Methoxy-5-(2-methyl-5-(4-(piperazin-1-yl)phenyl)pyridin-3-yl)phenyl)propane-2-sulfonamide]",> 100
> 100,> 100000,,"CCCS(=O)(=O)Nc1cc(-c2cc(-c3ccc(N4CCNCC4)cc3)cnc2N)cc(F)c1C [CSLP41, N-(5-(2-Amino-5-(4-(piperazin-1-yl)phenyl)pyridin-3-yl)-3-fluoro-2-methylphenyl)propane-1-sulfonamide]",> 100
> 10,> 100,,CCCS(=O)(=O)Nc1cc(-c2cc(-c3ccc(N4CCNCC4)cc3)cnc2N)cc(Cl)c1OC [CSLP35],> 10
> 1000,> 100,,"CCCS(=O)(=O)Nc1cc(-c2cc(-c3ccc(N4CCNCC4)cc3)cnc2N)cc(OC)c1C [CSLP19, N-(5-(2-Amino-5-(4-(piperazin-1-yl)phenyl)pyridin-3-yl)-3-methoxy-2-methylphenyl)propane-1-sulfonamide]",> 1000
> 100,> 1,,"COc1cc(NS(=O)(=O)Cc2ccccc2)cc(-c2cc(-c3ccc(N4CCNCC4)cc3)cnc2N)c1 [CSLP24, N-(3-(2-Amino-5-(4-(piperazin-1-yl)phenyl)pyridin-3-yl)-5-methoxyphenyl)-1-phenylmethanesulfonamide]",> 100
> 100,> 100000,,"CC(C)Oc1cc(NS(=O)(=O)C(C)C)cc(-c2cc(-c3ccc(N4CCNCC4)cc3)cnc2N)c1 [CSLP29, N-(3-(2-Amino-5-(4-(piperazin-1-yl)phenyl)pyridin-3-yl)-5-isopropoxyphenyl)propane-2-sulfonamide]",> 100
> 10,> 100000,,"CCCS(=O)(=O)N1CCOc2ccc(-c3cc(-c4ccc(N5CCNCC5)cc4)cnc3N)cc21 [CSLP47, 5-(4-(Piperazin-1-yl)phenyl)-3-(4-(propylsulfonyl)-3,4-dihydro-2H-benzo[b][1,4]oxazin-6-yl)pyridin-2-amine]",> 1000
> 1000,> 100000,,CCCS(=O)(=O)Nc1cc(-c2cc(-c3ccc(N4CCNCC4)cc3)cnc2N)cc(OCC)c1OC [CSLP56],> 1000
> 1000,> 100000,,"CCCS(=O)(=O)Nc1cc(-c2cc(-c3ccccc3S(C)(=O)=O)cnc2N)ccc1OC [CSLP33, N-(5-(2-Amino-5-(2-(methylsulfonyl)phenyl)pyridin-3-yl)-2-methoxyphenyl)propane-1-sulfonamide]",> 1000
> 10,,,"COc1cc(NS(=O)(=O)C2CC2)cc(-c2cc(-c3ccc(N4CCNCC4)cc3)cnc2N)c1 [CSLP11, N-(3-(2-Amino-5-(4-(piperazin-1-yl)phenyl)pyridin-3-yl)-5-methoxyphenyl)cyclopropanesulfonamide]",> 100
,,76,"COc1cc(NS(=O)(=O)C2CC2)cc(-c2cc(-c3ccc(N4CCNCC4)cc3)cnc2C)c1 [CSLP9, N-(3-Methoxy-5-(2-methyl-5-(4-(piperazin-1-yl)phenyl)pyridin-3-yl)phenyl)cyclopropanesulfonamide]",> 1000
> 10,,,CCS(=O)(=O)Nc1cc(OC)cc(-c2cc(-c3ccc(N4CCNCC4)cc3)cnc2N)c1 [CSLP7],> 100
